Results published in patent publication EP4563149A1, “LURBINECTEDIN, ECUBECTEDIN AND A RELATED COMPOUND FOR USE IN THE TREATMENT OF SKIN CANCERS” (Pharma Mar, S.A., priority 2023, dated 2025).
Where two headings read alike, the source gives them in different places.

Assays:
[1] = test system: 501mel, 501mel^VemuR or SKMEL28 melanoma cells; conditions: weekly IV 1.2mg/kg; for antitumor activity (tumor volumes) versus placebo-treated group: N=8/group; for overall survival: three CDX models
Experimental: To investigate the effects of the aforementioned tested drugs in living organisms, it was decided to examine the impact of PM14 and Compound IA on melanoma cell-derived xenograft (CDXs) mouse models. Human 501mel, 501mel^VemuR or SKMEL28 melanoma cells were subcutaneously implanted into the right flank of NSG mice.
Tumor volumes were monitored following weekly IV treatments of PM14 or Comp IA at a concentration of 1.2mg/kg. Treatments commenced (Day 0) when the tumors reached 150 mm^3 in female NSG mice aged 4 to 6 weeks (N=8/group).

[2] = test system: Sk-mel-28 melanoma xenografts; conditions: 1.2 mg/kg intravenous
Experimental: Female athymic nu/nu mice (Harlan Laboratories Models, S.L. Barcelona, Spain or Envigo, Spain) were utilized for all experiments. Animal were housed in individually ventilated cages Sealsafe® Plus, Techmplast S.P.A.), up to ten per cage on a 12-hour light-dark cycle at 21-23 °C and 40-60 % humidity. Mice were allowed free access to irradiated standard rodent diet (Tecklad 2914C) and sterilized water. Animals were acclimated for at least 5 days prior to tumor implantation with a tumor cell suspension.
The cell line used are: • 501mel • IGR-37 • SK-Mel-28 • WM-266-4 • LOX-IMVI • 501mel^Vemur
In xenograft studies with cell lines: • Tumour volume was calculated using the equation […], where a: length (longest diameter) and b: width (shortest diameter) were measured in mm by using digital caliper (Fowler Sylvac, S235PAT). Tumour dimensions and body weights were recorded 2-3 times per week starting from the first day of treatment. • When tumors reached ca. 150-250 mm^3, tumour bearing animals (N = 8-10/group) were randomly allocated into the treatment groups, based on body weight and tumour measurements by using NewLab Oncology Software (version 2.25.06.00). • Comparison between median tumour volume of treated and placebo groups was used for evaluation of the antitumoural efficacy. • Animals were euthanized when their tumours reached ca. 1,500 mm^3 and/or severe necrosis was seen.
Treatments producing >20 % lethality and/or 20% net body weight loss were considered toxic.
In these experiments, PM14 and Compound IA, as well as placebo, were intravenously administered once per week for 3 consecutive weeks, on days 0, 7 and 14, whenever it was possible.
Table 6. Tumour volume evaluation in Sk-mel-28 melanoma xenografts with PM14 and Compound IA and placebo.

501mel = assay: Cell viability assay (PrestoBlue), 72h; conditions: Homo sapiens
Experimental: Cells were grown at 37°C in 5% CO2 (10% for Hermes 3A) and were regularly checked for mycoplasma contamination. […] Melanoma cell lines 501mel and SKmel28 were grown in RPMI w/o HEPES (Gibco, Invitrogen) supplemented with 10% FCS and gentamycin. Vemurafenib-resistant cells (501melVemuR and MM074VemuR) were additionally supplemented with 1.5 µM of vemurafenib. Melanoma IGR cell lines (IGR37 and IGR39) were grown in RPMI w/o HEPES (Gibco, Invitrogen) supplemented with 15% FCS and gentamycin.
To determine the IC50 (half maximal inhibitory concentration) of these cells to various inhibitors, cell viability assays were performed.
After 72h of treatment with different concentrations of the compounds, cells were treated with PrestoBlue reagent according to the manufacturer's instructions. The absorbance per well was measured with a Cellinsight CX5 microplate reader. Data were analyzed using Prism9 statistical software.

MM074 and MM029 cells = conditions: MM074 and MM029, 10×IC50 for 8h
Experimental: Purified RNA was subjected to library preparation and high throughput sequencing on Illumina NovaSeq as signal-read 50 base reads following manufacturer's instructions. Sequenced samples were analyzed using nf-core RNAseq pipeline v1.3, quality controlled, trimmed, and aligned to the reference human genome using HISAT2. The identification and quantification of transcripts were performed using feature Counts from subread package. Differential expressed gene (DEG) analysis were done using DeSeq2.

| Structure (SMILES) | antitumor activity (tumor volumes) versus placebo-treated group [1] | overall survival [1] | Median Tumour Volume ([2]; days 0, 7 and 14, day 0) | Median Tumour Volume ([2]; days 0, 7 and 14, day 2) | Median Tumour Volume ([2]; days 0, 7 and 14, day 4) | Median Tumour Volume ([2]; days 0, 7 and 14, day 7) | Median Tumour Volume ([2]; days 0, 7 and 14, day 9) | Median Tumour Volume ([2]; days 0, 7 and 14, day 11) | Median Tumour Volume ([2]; days 0, 7 and 14, day 14) | Median Tumour Volume ([2]; days 0, 7 and 14, day 16) | Median Tumour Volume ([2]; days 0, 7 and 14, day 18) | Median Tumour Volume ([2]; days 0, 7 and 14, day 21) | Median Tumour Volume ([2]; days 0, 7 and 14, day 23) | Median Tumour Volume ([2]; days 0, 7 and 14, day 25) | Median Tumour Volume ([2]; days 0, 7 and 14, day 28) | IC50 (501mel) | Median Tumour Volume ([2]; days 0, 7 and 14, day 32) | Median Tumour Volume ([2]; days 0, 7 and 14, day 35) | transcriptional effects compared to lurbinectedin (MM074 and MM029 cells) |
| --- | --- | --- | --- | --- | --- | --- | --- | --- | --- | --- | --- | --- | --- | --- | --- | --- | --- | --- | --- |
| COc1c(C)cc2c(c1O)[C@@H]1[C@@H]3[C@@H]4SC[C@]5(N[C@H](CO)Cc6c5[nH]c5ccccc65)C(=O)OC[C@@H](c5c6c(c(C)c(OC(C)=O)c54)OCO6)N3[C@@H](O)[C@H](C2)N1C [PM14, ecubectedin] | statistically significant difference | significant increase | 152.8 mm^3 | 184.4 mm^3 | 235.4 mm^3 | 326.2 mm^3 | 401.5 mm^3 | 510.6 mm^3 | 632.6 mm^3 | 671.9 mm^3 | 822.8 mm^3 | 884.4 mm^3 | 1,012.5 mm^3 | 1,204.2 mm^3 | 1,516.7 mm^3 | 1.25 nM | – | – | – |
| COc1c(C)cc2c(c1O)[C@@H]1[C@@H]3[C@@H]4SC[C@]5(N[C@H](CO)Cc6c5oc5ccccc65)C(=O)OC[C@@H](c5c6c(c(C)c(OC(C)=O)c54)OCO6)N3[C@@H](O)[C@H](C2)N1C [Compound IA] | statistically significant difference | significant increase | 152.3 mm^3 | 179.8 mm^3 | 232.7 mm^3 | 302 mm^3 | 397.8 mm^3 | 476.6 mm^3 | 551.1 mm^3 | 585.8 mm^3 | 676.6 mm^3 | 748.7 mm^3 | 866.2 mm^3 | 906.6 mm^3 | 1,203.1 mm^3 | 1.74 nM | 1,331.3 mm^3 | 1,593.1 mm^3 | dissimilar and fewer genes being deregulated |
